Data as given in patent US10980739B2, “Treatment of a disease of the gastrointestinal tract with a chemokine/chemokine receptor inhibitor” (Progenity, Inc., priority 2016, dated 2021).

Assay: Tacrolimus tissue pharmacokinetics, oral versus intra-cecal ingestible device delivery
Format: in vivo, Yorkshire-Cross farm swine
Details: swine, intra-cecal ingestible device vs oral, 12 hours post-dose; FIG. 76
Procedure: No further randomization procedure was employed.
Animals in Group 1 received an ingestible device containing 0.8 mL of vehicle solution (80% alcohol, 20% HCO-60). Animals in Group 2 received orally […] liquid formulation of tacrolimus at 4 mg/0.8 mL per animal (Prograf: 5 mg/mL). Animals in Group 3 received intra-cecally an ingestible device containing tacrolimus at 1 mg in 0.8 mL per ingestible device. Animals in Group 4 received intra-cecally an ingestible device containing tacrolimus at 2 mg in 0.8 mL per ingestible device. Animals in Group 5 received intra-cecally an ingestible device containing tacrolimus at 4 mg in 0.8 mL per ingestible device. […]
Approximately 200˜400 mg of rectal content were collected, if available, with a fecal swab (Copan Diagnostics Nylon Flocked Dry Swabs, 502CS01). The fecal swab was pre-weighed and weighed after collection in the collection tube (Sterile Tube and Cap No Media, PFPM913S), and the sample weight was recorded. […]
For tissue necropsy, small intestine fluid and cecal fluid were collected separately from all the animals into two separate square plastic bottles, and stored at −20° C. The length and diameter of the cecum and the colon was measured from one animal in each group and recorded for reference. […] All samples were weighed, and the tissue sample weights were recorded. […]

C=CC[C@@H]1/C=C(\C)C[C@H](C)C[C@H](OC)[C@H]2O[C@@](O)(C(=O)C(=O)N3CCCC[C@H]3C(=O)O[C@H](/C(C)=C/[C@@H]3CC[C@@H](O)[C@H](OC)C3)[C@H](C)[C@@H](O)CC1=O)[C@H](C)C[C@@H]2OC [tacrolimus]
mean concentration of tacrolimus in the cecum tissue and the proximate colon tissue: higher
